Measured values from ChEMBL document CHEMBL4152377, “Design and Activity of Specific Hypoxia-Inducible Factor-2α (HIF-2α) Inhibitors for the Treatment of Clear Cell Renal Cell Carcinoma: Discovery of Clinical Candidate ( S)-3-((2,2-Difluoro-1-hydroxy-7-(methylsulfonyl)-2,3-dihydro-1 H-inden-4-yl)oxy)-5-fluorobenzonitrile (PT2385)” (J Med Chem, 2018).
Calls of active or inactive are those of the source. The calls are words filed in the database; no cut-off is given here.

How the values were obtained:
[1] = molecular target: T1, Endothelial PAS domain-containing protein 1 (Homo sapiens, UniProt Q99814)
T1 sequence (Q99814 whole entry, the tested form may be a part): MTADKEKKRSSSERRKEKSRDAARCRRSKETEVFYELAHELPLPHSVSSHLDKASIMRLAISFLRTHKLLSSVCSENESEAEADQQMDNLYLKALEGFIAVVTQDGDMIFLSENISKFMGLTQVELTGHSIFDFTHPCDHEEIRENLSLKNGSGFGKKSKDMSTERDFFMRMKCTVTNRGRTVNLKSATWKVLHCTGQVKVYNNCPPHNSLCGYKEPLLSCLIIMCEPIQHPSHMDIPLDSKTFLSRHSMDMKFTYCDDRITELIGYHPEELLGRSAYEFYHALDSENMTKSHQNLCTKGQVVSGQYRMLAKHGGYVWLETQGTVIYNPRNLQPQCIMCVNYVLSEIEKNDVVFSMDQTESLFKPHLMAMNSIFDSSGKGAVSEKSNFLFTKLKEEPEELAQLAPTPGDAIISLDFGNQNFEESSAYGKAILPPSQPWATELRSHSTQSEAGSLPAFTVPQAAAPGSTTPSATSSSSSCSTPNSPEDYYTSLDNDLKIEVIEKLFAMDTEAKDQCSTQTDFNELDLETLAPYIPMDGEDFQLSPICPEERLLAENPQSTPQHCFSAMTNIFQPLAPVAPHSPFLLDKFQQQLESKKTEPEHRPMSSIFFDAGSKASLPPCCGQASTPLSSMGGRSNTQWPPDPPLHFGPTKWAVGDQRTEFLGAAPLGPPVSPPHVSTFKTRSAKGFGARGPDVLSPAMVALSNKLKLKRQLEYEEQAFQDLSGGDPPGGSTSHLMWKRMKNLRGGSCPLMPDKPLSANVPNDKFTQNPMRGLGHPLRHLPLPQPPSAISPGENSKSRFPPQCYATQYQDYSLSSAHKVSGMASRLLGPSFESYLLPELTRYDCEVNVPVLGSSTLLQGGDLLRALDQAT

[2] = molecular target: T1, Endothelial PAS domain-containing protein 1; remark: listed apart in the source
Mus musculus [3] = test: Minimum drug level in SCID/Biege mouse xenografted with human 786-O cells at 10 mg/kg, po bid for 3 days and measured after 12 hrs post last dose by LC-MS/MS analysis; assay type: ADME, organism-based; details: in vivo
[4] = Intrinsic clearance in mouse liver microsomes at 1 uM measured up to 30 mins by LC-MS/MS analysis; assay type: ADME, microsome; details: read-out: CLH
[5] = Volume of distribution at steady state in CD1 mouse at 3 mg/kg, iv by UPLC analysis; assay type: ADME, organism-based; details: in vivo, read-out: Vdss
[6] = Oral bioavailability in CD1 mouse at 10 mg/kg by UPLC analysis; assay type: ADME, organism-based; details: in vivo
Mus musculus [7] = test: Toxicity in SCID/Biege mouse xenografted with human 786-O cells assessed as morbidity at 10 mg/kg, po bid for 21 days; assay type: organism-based; details: in vivo, 504 h
[8] = Half life in CD1 mouse at 10 mg/kg, po by UPLC analysis; assay type: ADME, organism-based; details: in vivo
Mus musculus [9] = test: Toxicity in SCID/Biege mouse xenografted with human 786-O cells assessed as mortality at 10 mg/kg, po bid for 21 days; assay type: organism-based; details: in vivo, 504 h
[10] = Plasma concentration in mouse after 12 hrs; assay type: ADME, cell-free
Mus musculus [11] = test: In vivo inhibition of HIF-2alpha in SCID/Biege mouse xenografted with human 786-O cells assessed as reduction in VEGFA mRNA levels at 10 mg/kg, po bid for 3 days and measured after 12 hrs post last dose by qRT-PCR analysis; assay type: functional, organism-based
786-0 [12] = test: In vivo inhibition of HIF-2alpha in SCID/Biege mouse xenografted with human 786-O cells assessed as reduction in tumor derived VEGFA protein levels at 10 mg/kg, po bid for 3 days and measured after 12 hrs post last dose by ELISA; assay type: functional, organism-based
[13] = Half life in Sprague-Dawley rat at 10 mg/kg, po via gavage by UPLC analysis; assay type: ADME, organism-based; details: in vivo
Mus musculus [14] = test: In vivo inhibition of HIF-2alpha in SCID/Biege mouse xenografted with human 786-O cells assessed as reduction in CCND1 mRNA levels at 10 mg/kg, po bid for 3 days and measured after 12 hrs post last dose by qRT-PCR analysis; assay type: functional, organism-based
[15] = Protein binding in mouse plasma at 10 uM after 4 hrs by LC-MS/MS analysis; assay type: ADME, cell-free; details: read-out: PPB (converted)
[16] = Apparent permeability across apical to basolateral side in MDCK-MDR1 cells at 1 uM after 1 hr by LC/MS/MS analysis; assay type: ADME, cell-based, Canis lupus familiaris; details: dog
[17] = AUCt in Sprague-Dawley rat at 10 mg/kg, po via gavage by UPLC analysis; assay type: ADME, organism-based; details: in vivo
[18] = Clearance in CD1 mouse at 3 mg/kg, iv by UPLC analysis; assay type: ADME, organism-based; details: in vivo
[19] = Oral bioavailability in Sprague-Dawley rat at 10 mg/kg administered via gavage by UPLC analysis; assay type: ADME, organism-based; details: in vivo
[20] = Volume of distribution at steady state in Sprague-Dawley rat at 3 mg/kg, iv by UPLC analysis; assay type: ADME, organism-based; details: in vivo, read-out: Vdss
Mus musculus [21] = test: Toxicity in SCID/Biege mouse xenografted with human 786-O cells assessed as effect on body weight at 10 mg/kg, po bid for 21 days; assay type: organism-based; details: in vivo, 504 h
786-0 [22] = test: Antitumor activity against human 786-O cells xenografted in SCID/Biege mouse assessed as tumor regression at 10 mg/kg, po bid for 21 days; assay type: functional, organism-based
[23] = Clearance in Sprague-Dawley rat at 3 mg/kg, iv by UPLC analysis; assay type: ADME, organism-based; details: in vivo
[24] = AUCt in CD1 mouse at 10 mg/kg, po by UPLC analysis; assay type: ADME, organism-based; details: in vivo
Rattus norvegicus = test: Drug level in Sprague-Dawley rat treated with 10 mg/kg, po (R)-3-((4-(Difluoromethyl)-2,2-difluoro-3-hydroxy-1,1-dioxido-2,3-dihydrobenzo[b]thiophen-5-yl)oxy)-5-fluorobenzonitrile assessed as compound formation by UPLC analysis; assay type: ADME, organism-based; details: in vivo
[25] = Efflux ratio of apparent permeability in MDCK-MDR1 cells at 1 uM after 1 hr by LC/MS/MS analysis; assay type: ADME, cell-based, Canis lupus familiaris; details: dog
[26] = molecular target: T1, Endothelial PAS domain-containing protein 1; test: Antagonist activity at HIF-2alpha in human 786-O cells assessed as free plasma adjusted EC50 for reduction in VEGFA concentration after 24 hrs by ELISA; assay type: cell-based
[27] = molecular target: T1, Endothelial PAS domain-containing protein 1; test: Antagonist activity at HIF-2alpha in human 786-O cells assessed as reduction in VEGFA concentration after 24 hrs by ELISA; assay type: cell-based

Compound: O=S1(=O)c2ccc(Oc3cc(F)cc(Cl)c3)cc2C(O)C1(F)F (stereo unspecified)
- IC50 [1]: 1100 nM

Compound: O=S1(=O)CC(O)c2c1ccc(Oc1cc(F)cc(Cl)c1)c2Br (stereo unspecified)
- EC50 [2]: 7200 nM
- IC50 [1]: 2400 nM

Compound: N#Cc1cc(F)cc(Oc2ccc(S(=O)(=O)C(F)F)c3c2CC(F)(F)[C@H]3O)c1
- Drug uptake (Mus musculus [3]): Active
- CLint scaled at 1 µM [4]: 32.2 mL/min/kg
- Vd [5]: 7.4 L/kg
- bioavailability [6]: 67%
- Activity (Mus musculus [7]): Non-Toxic
- half-life [8]: 7.3 h
- Activity (Mus musculus [9]): Non-Toxic
- concentration at 12 h [10]: 380 nM
- inhibition (Mus musculus [11]): Active
- inhibition (786-0 [12]): Active
- half-life [13]: 5.4 h
- inhibition (Mus musculus [14]): Active
- fraction unbound at 4 h, 10 µM [15]: 0.06
- Papp A→B at 1 h, 1 µM [16]: 2.84 ×10⁻⁶ cm/s
- AUC(0-t) [17]: 0.39 µM·h
- clearance [18]: 34.3 mL/min/kg
- bioavailability [19]: 6%
- Vd [20]: 5.55 L/kg
- Activity (Mus musculus [21]): Non-Toxic
- Activity (786-0 [22]): Active
- clearance [23]: 57.7 mL/min/kg
- AUC(0-t) [24]: 7.3 µM·h

Compound: O=S1(=O)c2ccc(Oc3cncc(Cl)c3)c(C(F)F)c2C(O)C1(F)F (stereo unspecified)
- EC50 [2]: 630 nM
- IC50 [1]: 350 nM

Compound: NC(=O)c1cc(S(=O)(=O)C(F)(F)F)ccc1Oc1cc(F)cc(Cl)c1
- IC50 [1]: 22600 nM

Compound: N#Cc1cc(F)cc(Oc2ccc(S(=O)(=O)C(F)F)c(C(=O)O)c2C(F)F)c1
- IC50 [1]: > 100000 nM

Compound: N#Cc1cc(F)cc(Oc2ccc3c(c2C(F)F)C(=O)C(F)(F)S3(=O)=O)c1
- Drug uptake (Rattus norvegicus): Active

Compound: O=S(=O)(c1ccc(Oc2cc(F)cc(Cl)c2)c2c1C(O)C(F)(F)C2)C(F)F (racemic)
- EC50 [2]: 20 nM
- IC50 [1]: < 5 nM

Compound: O=S1(=O)c2ccc(Oc3cc(F)cc(Cl)c3)c(C(F)F)c2C(O)C1(F)F (stereo unspecified)
- EC50 [2]: 17 nM

Compound: COC(=O)c1cc(S(=O)(=O)C(F)(F)F)ccc1Oc1cc(F)cc(Cl)c1
- IC50 [1]: 52900 nM

Compound: O=S1(=O)CCC(O)c2c1ccc(Oc1cc(F)cc(F)c1)c2C(F)F (stereo unspecified)
- IC50 [1]: 3200 nM

Compound: NCc1c(S(=O)(=O)C(F)F)ccc(Oc2cc(F)cc(Cl)c2)c1Br
- IC50 [1]: 700 nM

Compound: O=[N+]([O-])c1cc(S(=O)(=O)C(F)F)ccc1Nc1cc(F)cc(Cl)c1
- IC50 [1]: 16 nM

Compound: O=S(=O)(c1ccc(Oc2cc(F)cc(Cl)c2)c(CO)c1)C(F)(F)F
- IC50 [1]: 1200 nM

Compound: O=S(=O)(c1ccc(Oc2cc(F)cc(Cl)c2)c(Br)c1)C(F)(F)F
- EC50 [2]: 3700 nM
- IC50 [1]: 170 nM

Compound: CC(O)c1ccc(Nc2cc(F)cc(Cl)c2)c([N+](=O)[O-])c1 (stereo unspecified)
- IC50 [1]: 12700 nM

Compound: CC1(C)C(O)c2c(ccc(Oc3cc(F)cc(Cl)c3)c2Br)S1(=O)=O (stereo unspecified)
- IC50 [1]: 19600 nM

Compound: N#Cc1c(Oc2cc(F)cc(Cl)c2)ccc2c1C(O)C(F)(F)S2(=O)=O (stereo unspecified)
- EC50 [2]: 9200 nM
- IC50 [1]: 49 nM

Compound: O=[N+]([O-])c1cc(C(F)(F)F)ccc1Nc1cc(F)cc(Cl)c1
- IC50 [1]: 280 nM

Compound: CNS(=O)(=O)c1ccc(Nc2cc(F)cc(Cl)c2)c([N+](=O)[O-])c1
- IC50 [1]: 4200 nM

Compound: O=[N+]([O-])c1c(Nc2cc(F)cc(Cl)c2)ccc2nonc12
- IC50 [1]: 490 nM

Compound: N#Cc1cc(F)cc(Oc2ccc(S(=O)(=O)CF)c3c2CC(F)(F)[C@H]3O)c1
- Drug uptake (Mus musculus [3]): Active
- CLint scaled at 1 µM [4]: 26.9 mL/min/kg
- efflux ratio at 1 h, 1 µM [25]: 1.04
- EC50 [26]: 182 nM
- Vd [5]: 12.6 L/kg
- bioavailability [6]: 91%
- Activity (Mus musculus [7]): Non-Toxic
- half-life [8]: 5.5 h
- Activity (Mus musculus [9]): Non-Toxic
- concentration at 12 h [10]: 1100 nM
- EC50 [2]: 9 nM
- EC50 [27]: 20 nM
- inhibition (Mus musculus [11]): Active
- inhibition (786-0 [12]): Active
- half-life [13]: 2.9 h
- inhibition (Mus musculus [14]): Active
- fraction unbound at 4 h, 10 µM [15]: 0.11
- Papp A→B at 1 h, 1 µM [16]: 2.73 ×10⁻⁶ cm/s
- AUC(0-t) [17]: 2.14 µM·h
- clearance [18]: 32.3 mL/min/kg
- bioavailability [19]: 32%
- Vd [20]: 6.15 L/kg
- Activity (Mus musculus [21]): Non-Toxic
- Activity (786-0 [22]): Active
- clearance [23]: 57.6 mL/min/kg
- AUC(0-t) [24]: 9.46 µM·h

Compound: O=S(=O)(c1ccc(Oc2cc(F)cc(Cl)c2)c(Cl)c1)C(F)(F)F
- EC50 [2]: 3400 nM
- IC50 [1]: 140 nM

Compound: O=S(=O)(c1ccc(Oc2cc(F)cc(Cl)c2)c(Br)c1)C(F)F
- EC50 [2]: 2200 nM
- IC50 [1]: 180 nM

Compound: O=[N+]([O-])c1cc(S(=O)(=O)CF)ccc1Nc1cc(F)cc(Cl)c1
- IC50 [1]: 280 nM

Compound: CC(=O)NCc1c(S(=O)(=O)C(F)F)ccc(Oc2cc(F)cc(Cl)c2)c1Br
- IC50 [1]: 18200 nM

Compound: O=C(O)c1cc(S(=O)(=O)C(F)(F)F)ccc1Oc1cc(F)cc(Cl)c1
- IC50 [1]: 44400 nM

Compound: CS(=O)(=O)c1ccc(Oc2cc(F)cc(C#N)c2)c2c1C(O)C(F)(F)CC2 (racemic)
- IC50 [1]: 3600 nM

Compound: CS(=O)(=O)c1ccc(Oc2cc(F)cc(Cl)c2)c(Br)c1
- IC50 [1]: 4400 nM

Compound: Cc1c(Oc2cc(F)cc(Cl)c2)ccc2c1C(O)C(F)(F)S2(=O)=O (stereo unspecified)
- EC50 [2]: 340 nM
- IC50 [1]: 20 nM

Compound: O=S(=O)(c1ccc(Oc2cncc(Cl)c2)c2c1[C@H](O)C(F)(F)C2)C(F)F
- Drug uptake (Mus musculus [3]): Not Active
- CLint scaled at 1 µM [4]: 20.1 mL/min/kg
- Vd [5]: 25 L/kg
- bioavailability [6]: 101%
- Activity (Mus musculus [7]): Non-Toxic
- half-life [8]: 5.3 h
- Activity (Mus musculus [9]): Non-Toxic
- concentration at 12 h [10]: 560 nM
- inhibition (Mus musculus [11]): inactive
- inhibition (786-0 [12]): inactive
- inhibition (Mus musculus [14]): inactive
- fraction unbound at 4 h, 10 µM [15]: 0.06
- Papp A→B at 1 h, 1 µM [16]: 2.79 ×10⁻⁶ cm/s
- clearance [18]: 58.2 mL/min/kg
- Activity (Mus musculus [21]): Non-Toxic
- Activity (786-0 [22]): inactive
- AUC(0-t) [24]: 5.44 µM·h

Compound: N#Cc1cc(F)cc(Oc2ccc(S(=O)(=O)C(F)(F)F)c3c2CC(F)(F)[C@H]3O)c1
- EC50 [2]: < 5 nM

Compound: O=S1(=O)c2ccc(Oc3cc(F)cc(Cl)c3)c(Br)c2C(O)C1(F)F (stereo unspecified)
- EC50 [2]: 43 nM
- IC50 [1]: < 5 nM

Compound: COCc1c(S(=O)(=O)C(F)F)ccc(Oc2cc(F)cc(Cl)c2)c1Cl
- IC50 [1]: 4200 nM

Compound: O=S1(=O)c2ccc(Oc3cc(F)cc(Cl)c3)c(C(F)(F)F)c2C(O)C1(F)F (stereo unspecified)
- EC50 [2]: 100 nM

Compound: O=[N+]([O-])c1cc(S(=O)(=O)C(F)(F)F)ccc1Oc1cc(F)cc(Cl)c1
- IC50 [1]: 32 nM

Compound: N#Cc1cncc(Oc2ccc3c(c2C(F)F)C(O)C(F)(F)S3(=O)=O)c1 (stereo unspecified)
- EC50 [2]: 180 nM
- IC50 [1]: 140 nM

Compound: N#Cc1cc(S(=O)(=O)C(F)(F)F)ccc1Oc1cc(F)cc(Cl)c1
- EC50 [2]: 11600 nM
- IC50 [1]: 34 nM
